Reference: paper PMC11350846, “Synthesis of Second-Generation Analogs of Temporin-SHa Peptide Having Broad-Spectrum Antibacterial and Anticancer Effects” (Antibiotics, 2024)
Where a SMILES comes first, the peptide text is derived from it. [ ]: non-standard residue; d: D form. d2Nal = N[C@H](Cc1ccc2ccccc2c1)C(=O)O

Experiments:
[1] = Circular dichroism, secondary structure (Bestsel); assay type: physicochemical; settings: CD in 20 mM SDS
Method: Circular dichroism of temporin SHa, [G10a]-SHa and newly synthesised second-generation analogs of [G10a]-SHa in 20 mM SDS are shown in Figure 2. In lipidic environments mimicked by SDS, peptides adopt an alpha helical structure due to their amphipathic nature. This structural feature is important for their antimicrobial activity, allowing for their insertion into bacterial membranes. The hydrophobic region of the peptide interacts with the hydrophobic portion of the lipid while the hydrophilic region remains exposed to the aqueous environment. The percentage of alpha helix, as well as the percentage of other secondary structures, was determined from CD data using Bestsel software (https://bestsel.elte.hu/index.php, (accessed on 22 June 2024)) (Table 3). Temporin-SHa (1) adopted a 49.5% α-helical structure, while its first-generation analog [G10a]-SHa (2) acquired a 82.4% alpha helical structure. The 84.6%, 88.7%, 4.7%, and 53.8% alpha helical structures were acquired for second-generation analogs 3, 4, 5, and 6, respectively.
The far-ultraviolet CD spectra were obtained using a JASCO J-810 spectropolarimeter (Jasco, Tokyo, Japan). In addition to this, the quartz cuvette of 10 mm path length was used. The temperature was maintained at 22 °C, and the output of the instrument was calibrated using D-(+)-10-camphorsulfonic acid. The peptides, which were present at a concentration of 1.0 mg/mL, were dissolved completely in 20 mM SDS at a concentration of 15 µM [21]. The instrument was set to record wavelengths ranging from 190 to 260 nm with a bandwidth of 2 nm. Ten consecutive scans (accumulations) were recorded for each spectrum at a rate of 50 nm/min, and the baseline was acquired under the same conditions.

E. faecium (DSM 20477) = settings: E. faecium, from MIC
Method: (§1) The peptides were assessed for their antibacterial activity by determining the minimum inhibitory concentration (MIC) using the two-fold serial dilution method following the National Committee of Clinical Laboratory Standards, as previously described. Gram-negative (Acinetobacter baumannii (DSM 30007), Escherichia coli (ATCC 8739), Enterobacter cloacae (DSM 30054), Helicobacter pylori (ATCC 43504), Klebsiella pneumoniae (DSM 26371), Pseudomonas aeruginosa (ATCC 9027)) and Gram-positive bacteria (Bacillus subtilis (ATCC 6633), Enterococcus faecalis (DSM 2570), Enterococcus faecium (DSM 20477), Staphylococcus aureus (ATCC 6538)) were used for the antibacterial activity assays. In brief, 3 mL of Mueller–Hinton (MH) broth was inoculated with single clusters of the various bacterial strains and incubated overnight at 37 °C with agitation at 200 rpm. The next day, the bacterial solution was diluted with sterile MH by 1/100 and further incubated at 37 °C and 200 rpm until the bacteria reached the log phase growth (OD600nm around 0.6). The bacterial suspension was then adjusted to a density of approximately 10^5 bacteria/mL, and 100 μL was added per well of 96-well microplates (Greiner BioOne, Les Ulis, France), followed by exposure to increasing concentrations of peptides (from 0 to 100 µM, 1:2 dilution). Plates were then incubated at 37 °C for 18-24 h under either aerobic (for A. baumannii, E. cloacae, E. coli, P. aeruginosa, B. subtilis, and S. aureus) or micro-aerobic conditions generated using GasPak units (for E. faecalis, E. faecium and, H. pylori). […] The optical density (OD) at 600nm was measured using a microplate reader (Biotek, Synergy Mx, Les Ulis, France) after the final incubation. All experiments were performed in triplicate (n = 3).

E. coli (ATCC 8739) = settings: E. coli, from MIC
Method: as §1

[2] = system: P. aeruginosa (ATCC 9027); settings: P. aeruginosa, from MIC
Method: as §1

K. pneumonia (DSM 26371) = settings: K. pneumonia, from MIC
Method: as §1

A. baumannii (DSM 30007) = settings: A. baumannii, from MIC
Method: as §1

E. cloacae (DSM 30054) = system: E. cloacae (DSM 30054)
Method: as §1

E. faecalis (DSM 2570) = system: E. faecalis (DSM 2570)
Method: as §1

Lung Cancer (A549) = assay type: cell-based, human; settings: 48 h
Method: (§2) The antiproliferative activity of the peptides was evaluated, as previously described using human cancer cell lines (A549 (lung), A2780 (ovary), HepG-2 (liver), MCF-7 (breast), MiaPaCa-2 (pancreas), MNT-1 (skin), and PC-3 (prostate)) and normal human lung fibroblasts (IMR-90) or epithelial cells (BEAS-2B). The cells were cultured in DMEM supplemented with 10% FBS, 1% L-glutamine, and 1% antibiotics at 37 °C in a 5% CO2 incubator. For the antiproliferative assay, cells were seeded in 96-well plates at approximately 3000 cells/well. Twenty-four hours later, cells were treated with increasing concentrations of peptides (1:2 serial dilution from 100 µM to 0 µM) for 48 h. After treatment, the number of viable cells was determined using a resazurin-based assay, and the fluorescence intensity was measured with a microplate reader (Ex 530 nm/Em 590 nm). The IC50 values of the peptides (i.e., the concentrations causing 50% inhibition of cell proliferation) were determined using GraphPad® Prism 7 software. The experiments were performed in triplicate (n = 3). The cytotoxicity of the peptides was also evaluated using confluent/no-dividing cells, as previously described. Briefly, human cells were seeded onto 96-well plates at 20,000 cells/well. When they reached 80–90% confluence (after 24–48 h), cells were treated with escalating concentrations of peptides. After 48h incubation, cell viability was measured using a resazurin assay and CC50 (i.e., the concentrations causing 50% inhibition of cell viability) and determined using GraphPad® Prism 7 software. The experiments were performed in triplicate (n = 3).

Ovarian Cancer (A2780) = assay type: cell-based, human; settings: 48 h
Method: as §2

Skin Cancer (MNT-1) = assay type: cell-based, human; settings: 48 h
Method: as §2

Liver Cancer (HepG-2) = assay type: cell-based, human; settings: 48 h
Method: as §2

[3] = system: Normal Lung Fibroblast (IMR-90); assay type: cell-based, human; settings: 48 h
Method: as §2

[4] = system: Pancreatic Cancer (MiaPaCa-2); assay type: cell-based, human; settings: 48 h
Method: as §2

Prostate Cancer (PC-3) = assay type: cell-based, human; settings: 48 h
Method: as §2

Breast Cancer (MCF-7) = assay type: cell-based, human; settings: 48 h
Method: as §2

[5] = system: Normal Lung Epithelium (BEAS-2B); assay type: cell-based, human; settings: 48 h
Method: as §2

[6] = system: Gram-negative and Gram-positive bacterial strains
Method: as §1

[7] = system: human cancer and normal/non-cancerous cells; assay type: cell-based; settings: tested human cells, up to 100 µM
Method: as §2

Structure (SMILES) | Antiparallel [1] [%] | Helix (alpha helical structure) [1] [%] | Others [1] [%] | Parallel [1] [%] | Turn [1] [%] | fold activity compared to [G10a]-SHa (2) (E. faecium (DSM 20477)) | IC50 (Lung Cancer (A549)) [µM] | IC50 (Ovarian Cancer (A2780)) [µM] | IC50 (Skin Cancer (MNT-1)) [µM] | IC50 (Liver Cancer (HepG-2)) [µM] | IC50 [3] [µM] | IC50 [4] [µM] | IC50 (Prostate Cancer (PC-3)) [µM] | IC50 (Breast Cancer (MCF-7)) [µM] | IC50 [5] [µM] | other results
CC[C@H](C)[C@H](NC(=O)CNC(=O)[C@H](CO)NC(=O)[C@H](CC(C)C)NC(=O)[C@@H](N)Cc1ccccc1)C(=O)N[C@H](C(=O)NCC(=O)N[C@@H](CCSC)C(=O)N[C@@H](CC(C)C)C(=O)N[C@@H](CCCCN)C(=O)N[C@@H](CCCCN)C(=O)N[C@@H](CC(C)C)C(=O)N[C@@H](Cc1ccccc1)C(N)=O)C(C)C [[G10K]-SHa (4), H-Phe^1-Leu^2-Ser^3-Gly^4-IIe^5-Val^6-Gly^7-Met^8-Leu^9-L-Lys^10-Lys^11-Leu^12-Phe^13-NH2] (H-FLSGIVGMLKKLF-NH2) | 11.30 | 88.70 | 0.00 | 0.00 | 0.00 | at least 16 | 32.6 ± 2.4 | 21.8 ± 3.2 | 21.7 ± 6.9 | 64.3 ± 3.5 | > 100 | 61.4 ± 4.1 | 11.7 ± 1.2 | 37.4 ± 11.8 | – | Helix (alpha helical structure) ([1]; listed as 4): 88.7%; fold activity compared to [G10a]-SHa (2) (E. coli (ATCC 8739)): at least four times more active; fold activity compared to [G10a]-SHa (2) [2]: at least four times more active; fold activity compared to [G10a]-SHa (2) (K. pneumonia (DSM 26371)): at least four times more active; fold activity compared to [G10a]-SHa (2) (A. baumannii (DSM 30007)): at least four times more active; fold activity compared to [G10a]-SHa (2) (E. cloacae (DSM 30054); E. cloacae, from MIC): about eight times more active; fold increase in activity relative to the parent peptide (1) (E. cloacae (DSM 30054); Enterobacter cloacae DSM 30054, from MIC): 4; fold increase in activity relative to the parent peptide (1) (E. faecalis (DSM 2570); Enterococcus faecalis DSM 2570, from MIC): 4
CC[C@H](C)[C@H](NC(=O)CNC(=O)[C@H](CO)NC(=O)[C@H](CC(C)C)NC(=O)[C@@H](N)Cc1ccccc1)C(=O)N[C@H](C(=O)NCC(=O)N[C@@H](CCSC)C(=O)N[C@@H](CC(C)C)C(=O)N[C@H](Cc1ccccc1)C(=O)N[C@@H](CCCCN)C(=O)N[C@@H](CC(C)C)C(=O)N[C@@H](Cc1ccccc1)C(N)=O)C(C)C [[G10f]-SHa (3), H-Phe^1-Leu^2-Ser^3-Gly^4-IIe^5-Val^6-Gly^7-Met^8-Leu^9-D-Phe^10-Lys^11-Leu^12-Phe^13-NH2] (H-FLSGIVGML[dF]KLF-NH2) | 15.40 | 84.60 | 0.00 | 0.00 | 0.00 | 32 | 3.6 ± 0.7 | 6.6 ± 0.5 | 5.5 ± 0.4 | 19.8 ± 1.7 | 14.2 ± 0.6 | 6.8 ± 0.4 | 4.9 ± 0.3 | 4.4 ± 1.3 | 7.8 ± 0.3 | Helix (alpha helical structure) ([1]; listed as 3): 84.6%
CC[C@H](C)[C@H](NC(=O)CNC(=O)[C@H](CO)NC(=O)[C@H](CC(C)C)NC(=O)[C@@H](N)Cc1ccccc1)C(=O)N[C@H](C(=O)NCC(=O)N[C@@H](CCSC)C(=O)N[C@@H](CC(C)C)C(=O)N[C@H](Cc1ccc2ccccc2c1)C(=O)N[C@@H](CCCCN)C(=O)N[C@@H](CC(C)C)C(=O)N[C@@H](Cc1ccccc1)C(N)=O)C(C)C [[G10n]-SHa (5), H-Phe^1-Leu^2-Ser^3-Gly^4-IIe^5-Val^6-Gly^7-Met^8-Leu^9-D-NAL^10-Lys^11-Leu^12-Phe^13-NH2] (H-FLSGIVGML[d2Nal]KLF-NH2) | 34.10 | 4.70 | 47.20 | 1.10 | 12.90 | – | > 100 | > 100 | > 100 | > 100 | > 100 | > 100 | > 100 | > 100 | > 100 | Helix (alpha helical structure) ([1]; listed as 5): 4.7%; MIC values, range over strains [6]: 50 to 100 µM; activity against the tested human cells [7]: inactive
CC[C@H](C)[C@H](NC(=O)CNC(=O)[C@H](CO)NC(=O)[C@H](CC(C)C)NC(=O)[C@@H](N)Cc1ccccc1)C(=O)N[C@H](C(=O)NCC(=O)N[C@@H](CCSC)C(=O)N[C@@H](CC(C)C)C(=O)N[C@H](Cc1ccc(O)cc1)C(=O)N[C@@H](CCCCN)C(=O)N[C@@H](CC(C)C)C(=O)N[C@@H](Cc1ccccc1)C(N)=O)C(C)C [[G10y]-SHa (6), H-Phe^1-Leu^2-Ser^3-Gly^4-IIe^5-Val^6-Gly^7-Met^8-Leu^9-D-Tyr^10-Lys^11-Leu^12-Phe^13-NH2] (H-FLSGIVGML[dY]KLF-NH2) | 15.10 | 53.80 | 0.00 | 31.10 | 0.00 | at least eight times more activity | – | 23.2 ± 3.1 | 44.1 ± 8.1 | 40.3 ± 7.2 | – | 23.9 ± 3.9 | 19.3 ± 1.2 | 13.1 ± 3.6 | – | Helix (alpha helical structure) ([1]; listed as 6): 53.8%; fold activity compared to [G10a]-SHa (2) (E. faecalis (DSM 2570); E. faecalis, from MIC): twice the activity
